In ChEMBL document CHEMBL4425164, “5-Alkyl-2-urea-Substituted Pyridines: Identification of Efficacious Glucokinase Activators with Improved Properties” (ACS Med Chem Lett, 2016):
Values after ≈ are worked out from the molar mass of the structure shown.

Tests used:
Hexokinase-4 [1] = biological target: T1, Hexokinase-4 (Homo sapiens, UniProt P35557); experiment: Activation of human recombinant glucokinase using 5 mM glucose as substrate in presence of NAD+ and 4% HSA by glucose 6-phosphate dehydrogenase coupled assay
T1 sequence (P35557 whole entry): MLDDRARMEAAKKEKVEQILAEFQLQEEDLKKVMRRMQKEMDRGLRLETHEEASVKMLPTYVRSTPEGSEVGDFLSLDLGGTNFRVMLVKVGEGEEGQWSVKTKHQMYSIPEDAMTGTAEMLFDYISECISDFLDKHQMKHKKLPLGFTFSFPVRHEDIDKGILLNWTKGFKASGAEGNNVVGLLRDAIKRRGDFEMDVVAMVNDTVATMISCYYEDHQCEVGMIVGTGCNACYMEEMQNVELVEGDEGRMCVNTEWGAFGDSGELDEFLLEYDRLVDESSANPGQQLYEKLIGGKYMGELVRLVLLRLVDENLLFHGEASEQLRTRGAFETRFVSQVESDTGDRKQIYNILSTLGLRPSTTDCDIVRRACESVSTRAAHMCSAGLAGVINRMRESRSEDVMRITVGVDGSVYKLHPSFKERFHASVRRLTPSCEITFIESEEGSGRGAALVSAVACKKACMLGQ

[2] = Clearance in mouse at 1 mg/kg, iv; type: ADME, organism-based; conditions: in vivo
[3] = AUC in rat at 2 mg/kg, po; type: ADME, organism-based; conditions: in vivo
Mus musculus [4] = experiment: Antidiabetic activity in po dosed ob/ob mouse diabetic model assessed as decrease in blood glucose AUC administered 30 mins prior to oral glucose load measured at 30 to 120 mins by OGTT; type: functional, organism-based
Mus musculus [5] = experiment: Antidiabetic activity in ob/ob mouse diabetic model assessed as decrease in blood glucose AUC at 30 mg/kg, po administered 30 mins prior to oral glucose load measured at 30 to 120 mins by OGTT; type: functional
[6] = Clearance in rat at 0.5 mg/kg, iv; type: ADME, organism-based; conditions: in vivo
[7] = Half life in rat at 0.5 mg/kg, iv; type: ADME, organism-based; conditions: in vivo
[8] = Oral bioavailability in rat at 2 mg/kg; type: ADME, organism-based; conditions: in vivo
[9] = AUC in mouse at 5 mg/kg, po; type: ADME, organism-based; conditions: in vivo
[10] = biological target: T2, Hexokinase-4 (Homo sapiens) (UniProt P35557); experiment: Activation of human recombinant glucokinase assessed as enzyme affinity for glucose […] as substrate in presence of NAD+ by glucose 6-phosphate dehydrogenase coupled assay
T2 sequence (whole entry): T1 sequence (P35557 whole entry)

[11] = Volume of distribution at steady state in mouse at 1 mg/kg, iv; type: ADME, organism-based; conditions: in vivo, read-out: Vdss
[12] = Intrinsic clearance in human liver microsomes; type: ADME, Microsome; conditions: read-out: CLH
[13] = Fraction unbound in mouse plasma; type: ADME, cell-free
[14] = Oral bioavailability in mouse at 5 mg/kg; type: ADME, organism-based; conditions: in vivo
[15] = Solubility of the compound in PBS at pH 7.4; type: physicochemical; conditions: buffer
[16] = Half life in mouse at 1 mg/kg, iv; type: ADME, organism-based; conditions: in vivo
[17] = Volume of distribution at steady state in rat at 0.5 mg/kg, iv; type: ADME, organism-based; conditions: in vivo, read-out: Vdss
[18] = Fraction unbound in human plasma; type: ADME, cell-free
Hexokinase-4 [19] = biological target: T1, Hexokinase-4; experiment: Activation of human recombinant glucokinase using 5 mM glucose as substrate in presence of NAD+ by glucose 6-phosphate dehydrogenase coupled assay
[20] = biological target: T2, Hexokinase-4 (Homo sapiens); experiment: Activation of human recombinant glucokinase assessed as Vmax ratio using 0.16 to 80 mM of glucose as substrate in presence of NAD+ by glucose 6-phosphate dehydrogenase coupled assay relative to control
[21] = biological target: T2, Hexokinase-4 (Homo sapiens); experiment: Ratio of EC50 for activation of human recombinant glucokinase in presence of 4% HSA to EC50 for activation of human recombinant glucokinase in absence of 4% HSA
Rattus norvegicus [22] = experiment: Antidiabetic activity in Sprague-Dawley rat assessed as decrease in blood glucose AUC at 100 mg/kg, po measured at 0.5 to 5 hrs by OGTT; type: functional
Rattus norvegicus [23] = experiment: Antidiabetic activity in Sprague-Dawley rat assessed as decrease in blood glucose AUC at 30 mg/kg, po measured at 0.5 to 5 hrs by OGTT; type: functional
[24] = Drug metabolism assessed as oxidation at THP ring site by metabolic ID study
Rattus norvegicus [25] = experiment: Antidiabetic activity in Sprague-Dawley rat assessed as decrease in blood glucose AUC at 3 mg/kg, po measured at 0.5 to 5 hrs by OGTT; type: functional
[26] = Fraction unbound in rat plasma; type: ADME, cell-free
Rattus norvegicus [27] = experiment: Antidiabetic activity in po dosed Sprague-Dawley rat assessed as decrease in blood glucose AUC measured at 0.5 to 5 hrs by OGTT; type: functional, organism-based
Rattus norvegicus [28] = experiment: Antidiabetic activity in Sprague-Dawley rat assessed as decrease in blood glucose AUC at 10 mg/kg, po measured at 0.5 to 5 hrs by OGTT; type: functional

Row | Compound | EC50 (Hexokinase-4 [1]) | S0.5 [10] | EC50 (Hexokinase-4 [19]) | Ratio [20] | further results
1 | CNC(=O)Nc1cc(Oc2cncc(OC)c2)c([C@@H]2COCC[C@@H]2O)cn1 (relative stereo) | – | 0.66 mM | – | 0.83 | –
2 | CNC(=O)Nc1cc(Oc2cncc(OC)c2)c([C@@H]2CCCN(C)C2)cn1 | 2900 nM | 0.73 mM | 2300 nM | 0.78 | –
3 | CNC(=O)Nc1cc(Oc2cncc(C)c2)c([C@@H]2CC[C@@H](O)C2)cn1 | – | 0.47 mM | – | 0.94 | –
4 | CNC(=O)Nc1cc(Oc2cncc(C)c2)c(CCO)cn1 | 330 nM | 0.6 mM | 130 nM | 0.9 | Ratio EC50 [21]: 1 to 3; solubility [15]: 450 µM (≈ 136 µg/mL)
5 | CNC(=O)Nc1cc(Oc2cncc(OC)c2)c([C@H]2CCCOC2)cn1 | 220 nM | 0.65 mM | 160 nM | 1.1 | inhibition in vivo at 100 mg/kg (Rattus norvegicus [22]): 40%; clearance [2]: 157 mL/min/kg; AUC [3]: 3.64 µM·h; inhibition in vivo at 30 mg/kg (Rattus norvegicus [23]): 20%; CL [6]: 28.3 mL/min/kg; Drug metabolism [24]: Metabolite detected; inhibition in vivo at 3 mg/kg (Rattus norvegicus [25]): 3%; half-life [7]: 0.3 h; Fu [26]: 28%; F [8]: 20%; AUC [9]: 0.13 µM·h; Vd [11]: 3.3 L/kg; Fu [13]: 14%; bioavailability [14]: 5%; inhibition (Rattus norvegicus [27]): Dose-dependent effect; solubility [15]: 303 µM (≈ 109 µg/mL); half-life [16]: 0.3 h; inhibition in vivo at 10 mg/kg (Rattus norvegicus [28]): 13%; Vd [17]: 0.66 L/kg; Fu [18]: 16%
6 | CNC(=O)Nc1cc(Oc2cncc(C)c2)c([C@]2(O)C[C@H](O)C2)cn1 | 7500 nM | 0.67 mM | 6700 nM | 0.88 | –
7 | CNC(=O)Nc1cc(Oc2cncc(C)c2)c([C@H]2C[C@@H]2C(C)(C)O)cn1 (relative stereo) | – | 0.62 mM | – | 0.87 | –
8 | CNC(=O)Nc1cc(Oc2cncc(C)c2)c(C(C)CO)cn1 (stereo not given) | 820 nM | 0.56 mM | 670 nM | 0.95 | Ratio EC50 [21]: 1 to 3
9 | CNC(=O)Nc1cc(Oc2cncc(C)c2)c([C@H]2C[C@](C)(O)C2)cn1 | 300 nM | 0.7 mM | 160 nM | 0.71 | –
10 | CNC(=O)Nc1cc(Oc2cncc(C)c2)c(-c2ccc(OCC(C)(C)O)nc2)cn1 | – | – | – | – | AUC ([3]; read-out: AUC): 2.7 µM·h; clearance [6]: 30 mL/min/kg; half-life [7]: 2.3 h; Vd [17]: 2.7 L/kg
11 | CNC(=O)Nc1cc(Oc2cncc(OC)c2)c([C@H]2COCCC2(F)F)cn1 | 990 nM | 0.51 mM | 530 nM | 0.89 | –
12 | CNC(=O)Nc1cc(Oc2cncc(C)c2)c([C@H]2C[C@@H]2CO)cn1 (relative stereo) | – | 0.58 mM | – | 1 | –

Continued, in another order:

Row | EC50 (Hexokinase-4 [1]) | S0.5 [10] | EC50 (Hexokinase-4 [19]) | Ratio [20] | Compound | further results
13 | 140 nM | 0.66 mM | 110 nM | 0.97 | CNC(=O)Nc1cc(Oc2cncc(C)c2)c([C@H]2C[C@@H](O)C2)cn1 | clearance [2]: 14.5 mL/min/kg; AUC ([3]; read-out: AUC): 1.84 µM·h; inhibition (Mus musculus [4]): Dose-dependent effect; inhibition in vivo at 30 mg/kg (Mus musculus [5]): 32%; clearance [6]: 21.7 mL/min/kg; half-life [7]: 3 h; bioavailability [8]: 39%; AUC [9]: 3.69 µM·h; Vd [11]: 0.65 L/kg; microsomal CLint [12]: < 14 µL/min/mg; Fu [13]: 9.4%; bioavailability [14]: 20%; solubility [15]: 332 µM (≈ 109 µg/mL); half-life [16]: 1.2 h; Vd [17]: 1.2 L/kg; Fu [18]: 25%
14 | 110 nM | 0.62 mM | 720 nM | 0.94 | CNC(=O)Nc1cc(Oc2cncc(OC)c2)c([C@@H]2CCCOC2)cn1 | –
15 | 110 nM | 0.55 mM | 72 nM | 0.92 | CNC(=O)Nc1cc(Oc2cncc(C)c2)c([C@H]2C[C@H](O)C2)cn1 | –
16 | 70 nM | 0.57 mM | 40 nM | 0.82 | CNC(=O)Nc1cc(Oc2cncc(C)c2)c([C@H]2C[C@@H](CO)C2)cn1 | –
17 | 190 nM | 0.53 mM | 110 nM | 1.1 | CNC(=O)Nc1cc(Oc2cncc(OC)c2)c([C@@H]2CCOC2)cn1 | –
18 | 120 nM | 0.68 mM | 51 nM | 0.54 | CNC(=O)Nc1cc(Oc2cncc(C)c2)c([C@H]2C[C@@H](C(C)(C)O)C2)cn1 | –
19 | 97 nM | 0.51 mM | 72 nM | 1 | CNC(=O)Nc1cc(Oc2cncc(C)c2)c([C@H]2CCC[C@H](O)C2)cn1 | –
20 | 110 nM | 0.59 mM | 98 nM | 0.84 | CCOCCc1cnc(NC(=O)NC)cc1Oc1cncc(C)c1 | Ratio EC50 [21]: 1 to 3; solubility [15]: 500 µM (≈ 165 µg/mL)
21 | 150 nM | 0.62 mM | 110 nM | 1 | CNC(=O)Nc1cc(Oc2cncc(OC)c2)c(C2CCOCC2)cn1 | clearance [6]: 46.7 mL/min/kg
22 | 180 nM | 0.85 mM | 170 nM | 1 | CNC(=O)Nc1cc(Oc2cncc(OC)c2)c([C@H]2COCC[C@@H]2F)cn1 | clearance [6]: 26.7 mL/min/kg
23 | 56 nM | 0.54 mM | 37 nM | 0.87 | CNC(=O)Nc1cc(Oc2cncc(C)c2)c(CCCCO)cn1 | Ratio EC50 [21]: 1 to 3; solubility [15]: 500 µM (≈ 165 µg/mL)
24 | 98 nM | 0.82 mM | 66 nM | 1 | CNC(=O)Nc1cc(Oc2cncc(OC)c2)c(C2=CCOCC2)cn1 | clearance [6]: 41.7 mL/min/kg
25 | 100 nM | 0.55 mM | 66 nM | 0.96 | CNC(=O)Nc1cc(Oc2cncc(C)c2)c(CCCO)cn1 | Ratio EC50 [21]: 1 to 3; solubility [15]: 500 µM (≈ 158 µg/mL)
26 | 130 nM | 0.69 mM | 400 nM | 0.99 | CNC(=O)Nc1cc(Oc2cncc(OC)c2)c(C2=CCCOC2)cn1 | clearance [6]: 38.3 mL/min/kg
